# According to PubChem BioAssay (NCI):
#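 The compound was tested at five concentrations on cells cultured in 96-well plates, with a 48-hour exposure period. Here, GI50 denotes the concentration required for 50% inhibition of growth. Definition used: TGI = concentration required for complete inhibition of growth.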
# What was measured:
# Assay in all cases: NCI anticancer screen, dose series, 48 h
# SK-MEL-5 melanoma = tested on: SK-MEL-5 melanoma
# SK-MEL-2 melanoma = tested on: SK-MEL-2 melanoma
# RXF 393 renal = tested on: RXF 393 renal
# HCT-116 colon = tested on: HCT-116 colon
# A498 renal = tested on: A498 renal
# SN12C renal = tested on: SN12C renal
# OVCAR-8 ovarian = tested on: OVCAR-8 ovarian
# LOX IMVI melanoma = tested on: LOX IMVI melanoma
# MCF7 breast = tested on: MCF7 breast
# HT29 colon = tested on: HT29 colon
# KM12 colon = tested on: KM12 colon
# UACC-257 melanoma = tested on: UACC-257 melanoma
# SW-620 colon = tested on: SW-620 colon
# MDA-MB-231 breast = tested on: MDA-MB-231 breast
# 786-0 renal = tested on: 786-0 renal
# SF-539 CNS = tested on: SF-539 CNS
# SK-MEL-28 melanoma = tested on: SK-MEL-28 melanoma
# HOP-62 NSCLC = tested on: HOP-62 NSCLC
# BT-549 breast = tested on: BT-549 breast
# ACHN renal = tested on: ACHN renal
# MOLT-4 leukemia = tested on: MOLT-4 leukemia
# NCI-H226 lung = tested on: NCI-H226 lung
# K-562 leukemia = tested on: K-562 leukemia
# CCRF-CEM leukemia = tested on: CCRF-CEM leukemia
# U251 CNS = tested on: U251 CNS
# EKVX NSCLC = tested on: EKVX NSCLC
# NCI-H460 lung = tested on: NCI-H460 lung
# OVCAR-3 ovarian = tested on: OVCAR-3 ovarian
# IGROV1 ovarian = tested on: IGROV1 ovarian
# UACC-62 melanoma = tested on: UACC-62 melanoma
# CAKI-1 renal = tested on: CAKI-1 renal
# DU-145 prostate = tested on: DU-145 prostate
# HS 578T breast = tested on: HS 578T breast
# HOP-92 NSCLC = tested on: HOP-92 NSCLC
# HCT-15 colon = tested on: HCT-15 colon
# SF-295 CNS = tested on: SF-295 CNS
# RPMI-8226 leukemia = tested on: RPMI-8226 leukemia
# A549 NSCLC = tested on: A549 NSCLC
# UO-31 renal = tested on: UO-31 renal
# OVCAR-4 ovarian = tested on: OVCAR-4 ovarian
# SNB-75 CNS = tested on: SNB-75 CNS
# HL-60(TB) leukemia = tested on: HL-60(TB) leukemia
# M14 melanoma = tested on: M14 melanoma
# SR leukemia = tested on: SR leukemia
# SF-268 CNS = tested on: SF-268 CNS
# PC-3 prostate = tested on: PC-3 prostate
# MDA-MB-435 = tested on: MDA-MB-435
# NCI-H522 lung = tested on: NCI-H522 lung
# TK-10 renal = tested on: TK-10 renal
smiles,measurement,setting,value
COc1ccc(CN2C(=O)C(Cl)=C(Nc3cccc(O)c3)C2=O)cc1,GI50,SK-MEL-5 melanoma,3.78 µM
same,TGI,SK-MEL-5 melanoma,17.7 µM
same,GI50,SK-MEL-2 melanoma,4.16 µM
same,TGI,SK-MEL-2 melanoma,24.5 µM
same,GI50,RXF 393 renal,2.16 µM
same,TGI,RXF 393 renal,11.3 µM
same,GI50,HCT-116 colon,1.14 µM
same,TGI,HCT-116 colon,19.8 µM
same,GI50,A498 renal,14.2 µM
same,TGI,A498 renal,35.7 µM
same,GI50,SN12C renal,4.03 µM
same,TGI,SN12C renal,20.1 µM
same,GI50,OVCAR-8 ovarian,2.99 µM
same,TGI,OVCAR-8 ovarian,15 µM
same,GI50,LOX IMVI melanoma,5.7 µM
same,TGI,LOX IMVI melanoma,23 µM
same,GI50,MCF7 breast,3.64 µM
same,TGI,MCF7 breast,15.6 µM
same,GI50,HT29 colon,18 µM
same,TGI,HT29 colon,> 100 µM
same,GI50,KM12 colon,0.801 µM
same,TGI,KM12 colon,21.6 µM
same,GI50,UACC-257 melanoma,5.64 µM
same,TGI,UACC-257 melanoma,19.2 µM
same,GI50,SW-620 colon,4.69 µM
same,TGI,SW-620 colon,> 100 µM
same,GI50,MDA-MB-231 breast,6.43 µM
same,TGI,MDA-MB-231 breast,> 100 µM
same,GI50,786-0 renal,4.23 µM
same,TGI,786-0 renal,> 100 µM
same,GI50,SF-539 CNS,4.24 µM
same,TGI,SF-539 CNS,15.9 µM
same,GI50,SK-MEL-28 melanoma,13.3 µM
same,TGI,SK-MEL-28 melanoma,> 100 µM
same,GI50,HOP-62 NSCLC,8.61 µM
same,TGI,HOP-62 NSCLC,> 100 µM
same,GI50,BT-549 breast,13.7 µM
same,TGI,BT-549 breast,45.4 µM
same,GI50,ACHN renal,10.9 µM
same,TGI,ACHN renal,57.3 µM
same,GI50,MOLT-4 leukemia,0.501 µM
same,TGI,MOLT-4 leukemia,10.5 µM
same,GI50,NCI-H226 lung,6.44 µM
same,TGI,NCI-H226 lung,50.5 µM
same,GI50,K-562 leukemia,0.349 µM
same,TGI,K-562 leukemia,9.13 µM
same,GI50,CCRF-CEM leukemia,0.748 µM
same,TGI,CCRF-CEM leukemia,20.9 µM
same,GI50,U251 CNS,5.05 µM
same,TGI,U251 CNS,21.1 µM
same,GI50,EKVX NSCLC,21.5 µM
same,TGI,EKVX NSCLC,56 µM
same,GI50,NCI-H460 lung,14.6 µM
same,TGI,NCI-H460 lung,31.6 µM
same,GI50,OVCAR-3 ovarian,1.73 µM
same,TGI,OVCAR-3 ovarian,23.5 µM
same,GI50,IGROV1 ovarian,0.591 µM
same,TGI,IGROV1 ovarian,15.2 µM
same,GI50,UACC-62 melanoma,2.83 µM
same,TGI,UACC-62 melanoma,21.1 µM
same,GI50,CAKI-1 renal,1.68 µM
same,TGI,CAKI-1 renal,21.3 µM
same,GI50,DU-145 prostate,13.8 µM
same,TGI,DU-145 prostate,33 µM
same,GI50,HS 578T breast,9.62 µM
same,TGI,HS 578T breast,51.7 µM
same,GI50,HOP-92 NSCLC,12.1 µM
same,TGI,HOP-92 NSCLC,59.6 µM
same,GI50,HCT-15 colon,2.05 µM
same,TGI,HCT-15 colon,21.4 µM
same,GI50,SF-295 CNS,2.75 µM
same,TGI,SF-295 CNS,31.2 µM
same,GI50,RPMI-8226 leukemia,0.807 µM
same,TGI,RPMI-8226 leukemia,11.7 µM
same,GI50,A549 NSCLC,3.15 µM
same,TGI,A549 NSCLC,20.5 µM
same,GI50,UO-31 renal,6.91 µM
same,TGI,UO-31 renal,95.1 µM
same,GI50,OVCAR-4 ovarian,45.1 µM
same,TGI,OVCAR-4 ovarian,> 100 µM
same,GI50,SNB-75 CNS,6.73 µM
same,TGI,SNB-75 CNS,> 100 µM
same,GI50,HL-60(TB) leukemia,1.29 µM
same,TGI,HL-60(TB) leukemia,7.49 µM
same,GI50,M14 melanoma,5.63 µM
same,TGI,M14 melanoma,75.7 µM
same,GI50,SR leukemia,0.185 µM
same,TGI,SR leukemia,0.465 µM
same,GI50,SF-268 CNS,17.2 µM
same,TGI,SF-268 CNS,45.8 µM
same,GI50,PC-3 prostate,4.39 µM
same,TGI,PC-3 prostate,36.1 µM
same,GI50,MDA-MB-435,0.269 µM
same,TGI,MDA-MB-435,1.7 µM
same,GI50,NCI-H522 lung,2.31 µM
same,TGI,NCI-H522 lung,17.6 µM
same,GI50,TK-10 renal,3.77 µM
same,TGI,TK-10 renal,37 µM
